# Experiment: Cytotoxicity against mouse B16 cells assessed as decrease in cell viability after 48 hrs by MTT assay
# Type: functional, cell-based
# Conditions: B16, 48 h
row,SMILES,IC50 [µM]
1,COc1ccc(Cn2cc(-c3ccc(OC)cc3)nn2)cc1,> 100
2,Cc1ccc(C(O)c2cn(Cc3ccccc3)nn2)cc1 (stereo unspecified),> 100
3,COc1ccc(-c2cn(C[C@H]3COC(C)(C)O3)nn2)cc1,> 100
4,COc1ccc(C(O)c2cn(C[C@H]3COC(C)(C)O3)nn2)cc1 (stereo partly specified),> 100
5,CCOC(=O)Cn1cc(C(O)c2ccc3ccccc3c2)nn1 (stereo unspecified),> 100
6,COc1ccc(Cn2cc(C(O)c3ccc(OC)c(OC)c3OC)nn2)cc1 (stereo unspecified),> 100
7,COc1ccc(Cn2cc(-c3ccc([N+](=O)[O-])cc3)nn2)cc1,19.1
8,CC1(C)OC[C@H](Cn2cc(-c3ccc(C(F)(F)F)cc3)nn2)O1,> 100
9,COc1ccc(Cn2cc(-c3ccc(C(F)(F)F)cc3)nn2)cc1,17.4
10,COc1ccc(Cn2cc(-c3ccc4ccccc4c3)nn2)cc1,> 100
11,CCOC(=O)Cn1cc(-c2ccc([N+](=O)[O-])cc2)nn1,> 100
12,COc1ccc(-c2cn(C[C@H]3COC(C)(C)O3)nn2)c(OC)c1OC,> 100
13,O=[N+]([O-])c1ccc(-c2cn(Cc3ccccc3)nn2)cc1,5.12
14,COc1ccc(Cn2cc(-c3ccc(C)cc3)nn2)cc1,19.5
15,COc1ccc(C(O)c2cn(C[C@H]3COC(C)(C)O3)nn2)c(OC)c1OC (stereo partly specified),> 100
16,CC1(C)OC[C@H](Cn2cc(-c3ccc4ccccc4c3)nn2)O1,12
17,COc1ccc(-c2cn(CCO)nn2)cc1,> 100
18,CC1(C)OC[C@H](Cn2cc(C(O)c3ccc([N+](=O)[O-])cc3)nn2)O1 (stereo partly specified),> 100
19,COc1ccc(C(O)c2cn(CCO)nn2)c(OC)c1OC (stereo unspecified),> 100
20,Cc1ccc(-c2cn(C[C@H]3COC(C)(C)O3)nn2)cc1,> 100
21,CC1(C)OC[C@H](Cn2cc(-c3ccc([N+](=O)[O-])cc3)nn2)O1,> 100
22,COc1ccc(Cn2cc(C(O)c3ccc(C)cc3)nn2)cc1 (stereo unspecified),> 100
23,COc1ccc(Cn2cc(C(O)c3ccc(OC)cc3)nn2)cc1 (stereo unspecified),> 100

row,SMILES,IC50 [µM]
1,COc1ccc(Cn2cc(C(O)c3ccc([N+](=O)[O-])cc3)nn2)cc1 (stereo unspecified),> 100
2,COc1ccc(C(O)c2cn(CCO)nn2)cc1 (stereo unspecified),> 100
3,CCOC(=O)Cn1cc(-c2ccc3ccccc3c2)nn1,> 100
4,Cc1ccc(C(O)c2cn(C[C@H]3COC(C)(C)O3)nn2)cc1 (stereo partly specified),> 100
5,COc1ccc(-c2cn(Cc3ccccc3)nn2)cc1,> 100
6,OC(c1ccc(C(F)(F)F)cc1)c1cn(Cc2ccccc2)nn1 (stereo unspecified),> 100
7,CCOC(=O)Cn1cc(-c2ccc(OC)c(OC)c2OC)nn1,> 100
8,OCCn1cc(-c2ccc(C(F)(F)F)cc2)nn1,> 100
9,COc1ccc(-c2cn(Cc3ccccc3)nn2)c(OC)c1OC,27.5
10,c1ccc(Cn2cc(-c3ccc4ccccc4c3)nn2)cc1,3.89
11,COc1ccc(Cn2cc(-c3ccc(OC)c(OC)c3OC)nn2)cc1,> 100
12,Cc1ccc(-c2cn(CCO)nn2)cc1,> 100
13,OCCn1cc(-c2ccc3ccccc3c2)nn1,> 100
14,FC(F)(F)c1ccc(-c2cn(Cc3ccccc3)nn2)cc1,> 100
15,OC(c1ccc2ccccc2c1)c1cn(Cc2ccccc2)nn1 (stereo unspecified),28.8
16,Cc1ccc(-c2cn(Cc3ccccc3)nn2)cc1,> 100
17,CC1(C)OCC(Cn2cc(C(O)c3ccc(C(F)(F)F)cc3)nn2)O1 (racemic),> 100
18,CC1(C)OCC(Cn2cc(C(O)c3ccc4ccccc4c3)nn2)O1 (racemic),26.9
19,Cc1ccc(-c2cn(CC3COC(C)(C)O3)nn2)cc1 (racemic),41.7
20,CC1(C)OCC(Cn2cc(-c3ccc([N+](=O)[O-])cc3)nn2)O1 (racemic),> 100
21,CC1(C)OCC(Cn2cc(-c3ccc4ccccc4c3)nn2)O1 (racemic),6.6
22,CC1(C)OCC(Cn2cc(-c3ccc(C(F)(F)F)cc3)nn2)O1 (racemic),13.5
23,Cc1ccc(C(O)c2cn(CC3COC(C)(C)O3)nn2)cc1 (racemic),> 100
